In patent publication US20250098679A1, “HERBICIDAL PYRIDONE DERIVATIVES” (SYNGENTA CROP PROTECTION AG, priority 2021, published 2025):

Experiments:
Type in all cases: in vivo
Settings in all cases: evaluated after 13 days
Setaria faberi (SETFA) = test: Post-emergence Test, Setaria faberi (SETFA); parameters: key to percentage damage caused to the plant, SETFA (five-point scale): 5=81-100%, 4=61-80%, 3=41-60%, 2=21-40%, 1=0-20% damage
Procedure, shortened: (§1)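 Scores are percentage plant damage on a 1–5 scale (1=0-20%, 2=21-40%, 3=41-60%, 4=61-80%, 5=81-100%), read 13 days after treatment. Pots received a spray at 1000 g/ha unless otherwise stated, formulated in acetone/water (50:50) containing 0.5% Tween 20.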

[1] = system: Echinochloa crus-galli (ECHCG); test: Post-emergence Test, Echinochloa crus-galli (ECHCG); parameters: key to percentage damage caused to the plant, ECHCG (five-point scale): 5=81-100%, 4=61-80%, 3=41-60%, 2=21-40%, 1=0-20% damage
Procedure, shortened: as §1

Zea mays (ZEAMX) = test: Post-emergence Test, Zea mays (ZEAMX); parameters: key to percentage damage caused to the plant, ZEAMX (five-point scale): 5=81-100%, 4=61-80%, 3=41-60%, 2=21-40%, 1=0-20% damage
Procedure, shortened: as §1

[2] = system: Ipomoea hederacea (IPOHE); test: Post-emergence Test, Ipomoea hederacea (IPOHE); parameters: key to percentage damage caused to the plant, IPOHE (five-point scale): 5=81-100%, 4=61-80%, 3=41-60%, 2=21-40%, 1=0-20% damage
Procedure, shortened: as §1

[3] = system: Amaranthus palmeri (AMAPA); test: Post-emergence Test, Amaranthus palmeri (AMAPA); parameters: key: 5=81-100%, 4=61-80%, 3=41-60%, 2=21-40%, 1=0-20% damage
Procedure, shortened: as §1

[4] = system: Amaranthus retoflexus (AMARE); test: Post-emergence Test, Amaranthus retoflexus (AMARE); parameters: key to percentage damage caused to the plant, AMARE (five-point scale): 5=81-100%, 4=61-80%, 3=41-60%, 2=21-40%, 1=0-20% damage
Procedure, shortened: as §1

CCC(=O)Nc1ccn(Cc2cc(=O)c(C(=O)O)c(-c3ccc(Cl)c(Cl)c3)n2CC)n1 [Compound 192, 2-(3,4-dichlorophenyl)-1-ethyl-4-oxo-6-[[3-(propanoylamino)pyrazol-1-yl]methyl]pyridine-3-carboxylic acid]
percentage damage caused to the plant, SETFA (five-point scale) (Setaria faberi (SETFA); 1000 g/ha): 0 | percentage damage caused to the plant, ECHCG (five-point scale) ([1]; 1000 g/ha): 0 | percentage damage caused to the plant, ZEAMX (five-point scale) (Zea mays (ZEAMX); 1000 g/ha): 0 | percentage damage caused to the plant, IPOHE (five-point scale) ([2]; 1000 g/ha): 0 | percentage damage caused to the plant, AMAPA (five-point scale) ([3]; 1000 g/ha): 1 (1=0-20%) | percentage damage caused to the plant, AMARE (five-point scale) ([4]; 1000 g/ha): 1 (1=0-20%)

CCOC(=O)c1c(-c2ccc(Cl)c(Cl)c2)n(CC)c(Cn2cncn2)cc1=O [Compound 60, ethyl 2-(3,4-dichlorophenyl)-1-ethyl-4-oxo-6-(1,2,4-triazol-1-ylmethyl)pyridine-3-carboxylate]
percentage damage caused to the plant, SETFA (five-point scale) (Setaria faberi (SETFA); 1000 g/ha): 1 (1=0-20%) | percentage damage caused to the plant, ECHCG (five-point scale) ([1]; 1000 g/ha): 2 (2=21-40%) | percentage damage caused to the plant, ZEAMX (five-point scale) (Zea mays (ZEAMX); 1000 g/ha): 0 | percentage damage caused to the plant, IPOHE (five-point scale) ([2]; 1000 g/ha): 1 (1=0-20%) | percentage damage caused to the plant, AMAPA (five-point scale) ([3]; 1000 g/ha): 0 | percentage damage caused to the plant, AMARE (five-point scale) ([4]; 1000 g/ha): 1 (1=0-20%)

CCn1c(Cn2nc(C(F)(F)F)c3c2CCOC3)cc(=O)c(C(=O)O)c1-c1ccc(Cl)c(Cl)c1 [Compound 107, 2-(3,4-dichlorophenyl)-1-ethyl-4-oxo-6-[[3-(trifluoromethyl)-6,7-dihydro-4H-pyrano[4,3-c]pyrazol-1-yl]methyl]pyridine-3-carboxylic acid]
percentage damage caused to the plant, SETFA (five-point scale) (Setaria faberi (SETFA); 250 g/Ha): 0 | percentage damage caused to the plant, SETFA (five-point scale) (Setaria faberi (SETFA); 1000 g/ha): 1 (1=0-20%) | percentage damage caused to the plant, ECHCG (five-point scale) ([1]; 250 g/Ha): 2 (2=21-40%) | percentage damage caused to the plant, ECHCG (five-point scale) ([1]; 1000 g/ha): 1 (1=0-20%) | percentage damage caused to the plant, ZEAMX (five-point scale) (Zea mays (ZEAMX); 250 g/Ha): 0 | percentage damage caused to the plant, ZEAMX (five-point scale) (Zea mays (ZEAMX); 1000 g/ha): 0 | percentage damage caused to the plant, IPOHE (five-point scale) ([2]; 250 g/Ha): 0 | percentage damage caused to the plant, IPOHE (five-point scale) ([2]; 1000 g/ha): 2 (2=21-40%) | percentage damage caused to the plant, AMAPA (five-point scale) ([3]; 250 g/Ha): 0 | percentage damage caused to the plant, AMAPA (five-point scale) ([3]; 1000 g/ha): 1 (1=0-20%) | percentage damage caused to the plant, AMARE (five-point scale) ([4]; 250 g/Ha): 0 | percentage damage caused to the plant, AMARE (five-point scale) ([4]; 1000 g/ha): 1 (1=0-20%)

CCOC(=O)c1c(-c2ccc(Cl)c(Cl)c2)n(CC)c(Cn2ccnc2)c(Br)c1=O [Compound 24, ethyl 5-bromo-2-(3,4-dichlorophenyl)-1-ethyl-6-(imidazol-1-ylmethyl)-4-oxo-pyridine-3-carboxylate]
percentage damage caused to the plant, SETFA (five-point scale) (Setaria faberi (SETFA); 250 g/Ha): 1 (1=0-20%) | percentage damage caused to the plant, SETFA (five-point scale) (Setaria faberi (SETFA); 1000 g/ha): 1 (1=0-20%) | percentage damage caused to the plant, ECHCG (five-point scale) ([1]; 250 g/Ha): 1 (1=0-20%) | percentage damage caused to the plant, ECHCG (five-point scale) ([1]; 1000 g/ha): 1 (1=0-20%) | percentage damage caused to the plant, ZEAMX (five-point scale) (Zea mays (ZEAMX); 250 g/Ha): 1 (1=0-20%) | percentage damage caused to the plant, ZEAMX (five-point scale) (Zea mays (ZEAMX); 1000 g/ha): 3 (3=41-60%) | percentage damage caused to the plant, IPOHE (five-point scale) ([2]; 250 g/Ha): 2 (2=21-40%) | percentage damage caused to the plant, IPOHE (five-point scale) ([2]; 1000 g/ha): 1 (1=0-20%) | percentage damage caused to the plant, AMAPA (five-point scale) ([3]; 250 g/Ha): 1 (1=0-20%) | percentage damage caused to the plant, AMAPA (five-point scale) ([3]; 1000 g/ha): 1 (1=0-20%) | percentage damage caused to the plant, AMARE (five-point scale) ([4]; 250 g/Ha): 1 (1=0-20%) | percentage damage caused to the plant, AMARE (five-point scale) ([4]; 1000 g/ha): 1 (1=0-20%)

CCn1c(Cn2nc3ccccc3n2)cc(=O)c(C(=O)O)c1-c1ccc(Cl)c(Cl)c1 [Compound 55, 6-(benzotriazol-2-ylmethyl)-2-(3,4-dichlorophenyl)-1-ethyl-4-oxo-pyridine-3-carboxylic acid]
percentage damage caused to the plant, SETFA (five-point scale) (Setaria faberi (SETFA); 250 g/Ha): 0 | percentage damage caused to the plant, SETFA (five-point scale) (Setaria faberi (SETFA); 1000 g/ha): 1 (1=0-20%) | percentage damage caused to the plant, ECHCG (five-point scale) ([1]; 250 g/Ha): 2 (2=21-40%) | percentage damage caused to the plant, ECHCG (five-point scale) ([1]; 1000 g/ha): 2 (2=21-40%) | percentage damage caused to the plant, ZEAMX (five-point scale) (Zea mays (ZEAMX); 250 g/Ha): 0 | percentage damage caused to the plant, ZEAMX (five-point scale) (Zea mays (ZEAMX); 1000 g/ha): 1 (1=0-20%) | percentage damage caused to the plant, IPOHE (five-point scale) ([2]; 250 g/Ha): 0 | percentage damage caused to the plant, IPOHE (five-point scale) ([2]; 1000 g/ha): 3 (3=41-60%) | percentage damage caused to the plant, AMAPA (five-point scale) ([3]; 250 g/Ha): 1 (1=0-20%) | percentage damage caused to the plant, AMAPA (five-point scale) ([3]; 1000 g/ha): 3 (3=41-60%) | percentage damage caused to the plant, AMARE (five-point scale) ([4]; 250 g/Ha): 1 (1=0-20%) | percentage damage caused to the plant, AMARE (five-point scale) ([4]; 1000 g/ha): 0

CCn1c(Cn2cnc(C#N)c2C#N)cc(=O)c(C(=O)O)c1-c1ccc(Cl)c(Cl)c1 [Compound 113, 2-(3,4-dichlorophenyl)-6-[(4,5-dicyanoimidazol-1-yl)methyl]-1-ethyl-4-oxo-pyridine-3-carboxylic acid]
percentage damage caused to the plant, SETFA (five-point scale) (Setaria faberi (SETFA); 1000 g/ha): 1 (1=0-20%) | percentage damage caused to the plant, ECHCG (five-point scale) ([1]; 1000 g/ha): 1 (1=0-20%) | percentage damage caused to the plant, ZEAMX (five-point scale) (Zea mays (ZEAMX); 1000 g/ha): 1 (1=0-20%) | percentage damage caused to the plant, IPOHE (five-point scale) ([2]; 1000 g/ha): 0 | percentage damage caused to the plant, AMAPA (five-point scale) ([3]; 1000 g/ha): 1 (1=0-20%) | percentage damage caused to the plant, AMARE (five-point scale) ([4]; 1000 g/ha): 1 (1=0-20%)

CCn1c(Cn2cc3ccccc3n2)cc(=O)c(C(=O)O)c1-c1ccc(Cl)c(Cl)c1 [Compound 106, 2-(3,4-dichlorophenyl)-1-ethyl-6-(indazol-2-ylmethyl)-4-oxo-pyridine-3-carboxylic acid]
percentage damage caused to the plant, SETFA (five-point scale) (Setaria faberi (SETFA); 250 g/Ha): 0 | percentage damage caused to the plant, SETFA (five-point scale) (Setaria faberi (SETFA); 1000 g/ha): 1 (1=0-20%) | percentage damage caused to the plant, ECHCG (five-point scale) ([1]; 250 g/Ha): 2 (2=21-40%) | percentage damage caused to the plant, ECHCG (five-point scale) ([1]; 1000 g/ha): 1 (1=0-20%) | percentage damage caused to the plant, ZEAMX (five-point scale) (Zea mays (ZEAMX); 250 g/Ha): 0 | percentage damage caused to the plant, ZEAMX (five-point scale) (Zea mays (ZEAMX); 1000 g/ha): 0 | percentage damage caused to the plant, IPOHE (five-point scale) ([2]; 250 g/Ha): 0 | percentage damage caused to the plant, IPOHE (five-point scale) ([2]; 1000 g/ha): 3 (3=41-60%) | percentage damage caused to the plant, AMAPA (five-point scale) ([3]; 250 g/Ha): 0 | percentage damage caused to the plant, AMAPA (five-point scale) ([3]; 1000 g/ha): 1 (1=0-20%) | percentage damage caused to the plant, AMARE (five-point scale) ([4]; 250 g/Ha): 0 | percentage damage caused to the plant, AMARE (five-point scale) ([4]; 1000 g/ha): 1 (1=0-20%)

CCn1c(Cn2cnc(C(=O)OC)c2C(=O)OC)cc(=O)c(C(=O)O)c1-c1ccc(Cl)c(Cl)c1 [Compound 111, 6-[[4,5-bis(methoxycarbonyl)imidazol-1-yl]methyl]-2-(3,4-dichlorophenyl)-1-ethyl-4-oxo-pyridine-3-carboxylic acid]
percentage damage caused to the plant, SETFA (five-point scale) (Setaria faberi (SETFA); 1000 g/ha): 1 (1=0-20%) | percentage damage caused to the plant, ECHCG (five-point scale) ([1]; 1000 g/ha): 2 (2=21-40%) | percentage damage caused to the plant, ZEAMX (five-point scale) (Zea mays (ZEAMX); 1000 g/ha): 0 | percentage damage caused to the plant, IPOHE (five-point scale) ([2]; 1000 g/ha): 0 | percentage damage caused to the plant, AMAPA (five-point scale) ([3]; 1000 g/ha): 1 (1=0-20%) | percentage damage caused to the plant, AMARE (five-point scale) ([4]; 1000 g/ha): 1 (1=0-20%)

CCn1c(Cn2cnc(Cl)c2Cl)cc(=O)c(C(=O)O)c1-c1ccc(Cl)c(Cl)c1 [Compound 126, 6-[(4,5-dichloroimidazol-1-yl)methyl]-2-(3,4-dichlorophenyl)-1-ethyl-4-oxo-pyridine-3-carboxylic acid]
percentage damage caused to the plant, SETFA (five-point scale) (Setaria faberi (SETFA); 250 g/Ha): 0 | percentage damage caused to the plant, SETFA (five-point scale) (Setaria faberi (SETFA); 1000 g/ha): 0 | percentage damage caused to the plant, ECHCG (five-point scale) ([1]; 250 g/Ha): 1 (1=0-20%) | percentage damage caused to the plant, ECHCG (five-point scale) ([1]; 1000 g/ha): 0 | percentage damage caused to the plant, ZEAMX (five-point scale) (Zea mays (ZEAMX); 250 g/Ha): 0 | percentage damage caused to the plant, ZEAMX (five-point scale) (Zea mays (ZEAMX); 1000 g/ha): 1 (1=0-20%) | percentage damage caused to the plant, IPOHE (five-point scale) ([2]; 250 g/Ha): 0 | percentage damage caused to the plant, IPOHE (five-point scale) ([2]; 1000 g/ha): 0 | percentage damage caused to the plant, AMAPA (five-point scale) ([3]; 250 g/Ha): 0 | percentage damage caused to the plant, AMAPA (five-point scale) ([3]; 1000 g/ha): 1 (1=0-20%) | percentage damage caused to the plant, AMARE (five-point scale) ([4]; 250 g/Ha): 0 | percentage damage caused to the plant, AMARE (five-point scale) ([4]; 1000 g/ha): 0
